Results: US7772180B2, “Hepatitis C virus inhibitors” (Bristol-Myers Squibb Company, priority 2006, dated 2010)
pEC50: −log10 of the molar value.

System: HCV replicon with Renilla luciferase reporter in HUH-7 cells
Assay: HCV replicon luciferase reporter assay
Type: cell-based, Hepatitis C virus
Text: An HCV replicon whole cell system was established as described by Lohmann V, Korner F, Koch J, Herian U, Theilmann L, Bartenschlager R., Science 285(5424): 110-3 (1999). This system enabled us to evaluate the effects of our HCV Protease compounds on HCV RNA replication. Briefly, using the HCV strain 1b sequence described in the Lohmann paper (Assession number: AJ238799), an HCV cDNA was synthesized by Operon Technologies, Inc. (Alameda, Calif.), and the full-length replicon was then assembled in plasmid pGem9zf(+) (Promega, Madison, Wis.) using standard molecular biology techniques. The replicon consists of (i) the HCV 5′ UTR fused to the first 12 amino acids of the capsid protein, (ii) the neomycin phosphotransferase gene (neo), (iii) the IRES from encephalomyocarditis virus (EMCV), and (iv) HCV NS3 to NS5B genes and the HCV 3′ UTR. […]
As a secondary assay, EC50 determinations from the replicon FRET assay were confirmed in a replicon luciferase reporter assay. […] Following 4 days in a 37° C./5% CO2 incubator, cells were analyzed for Renilla Luciferase activity using the Promega Dual-Glo Luciferase Assay System. […] Plates were read on a Packard TopCount NXT using a luminescence program.
The percentage inhibition was calculated using the formula below: […]
The values were graphed and analyzed using XLfit to obtain the EC50 value.

C=C[C@@H]1C[C@]1(NC(=O)[C@@H]1C[C@@H](Oc2nc(N(C)C)cc3cc(OC)ccc23)CN1C(=O)C(Nc1cc(C)cc(C)n1)C(C)(C)C)C(=O)NS(=O)(=O)C1CC1 (single isomer, unassigned) [Compound 18]
pEC50: 8.96
